Assay results taken from US6225306A, “Biphenyl derivatives and drug composition” (Wakamoto Pharmaceutical Co., Ltd., priority 1997, dated 2001).
“And” between values parts separate entries of the source, which are not always exact repeats. Identical values can stand only once. Like-named read-outs stand apart in the source and are kept apart here.

Experiments:
Normal Conscious Rat [1] = experiment: Aquaretic Effects in Normal Conscious Rat (urine volume); type: in vivo, rat (Sprague-Dawley, male)
Protocol: Aquaretic Effects in Normal Conscious Rat
(§1) Studies were performed with Sprague-Dawley male SPF rats (body weight: 240 to 320 g; 8-week-old). In this experiment, each group consisted of not less than 4 animals and rats were fasted over 16 to 20 hours. The animals were acclimatized in metabolic cages for one hour, then each compound to be tested was dissolved in 100% N,N-dimethylformamide or suspended in 5% gum arabic solution and administered to these animals intravenously (iv.) in a dose of 3 mg/kg or orally (p.o.) in a dose of 30 mg/kg. Immediately after the test compound or vehicle were orally administered, saline (25 ml/kg) was given orally. Spontaneous voided urines were collected for 4 hours after the administration of the compound and the amount of the urine were determined. In this case, the control group consisted of animals to which only 5% gum arabic was orally administered.
In addition, known compounds of Comparative Examples 2 and Comparative Examples 3 and 4 represented by the following formulas were used as control compounds.

male ICR mice = experiment: Acute Toxicity Test; type: in vivo
Protocol: To groups of male ICR mice (6-week-old) each consisting of 5 animals, there were orally administered the compounds of Examples 13, 18, 25 and 30 and Comparative Examples 2 and 5 suspended in 5% gum arabic solution at doses of 150, 500 and 1500 mg/kg, followed by observation of the general symptoms of these animals during 7 days after the administration to thus evaluate the number of death. In this respect, mice were given feed and water ad libitum throughout this test except for the term extending from 16 to 20 hours before the administration and 4 hours after the administration.

Normal Conscious Rat [2] = experiment: Urinary electrolytes and urinary osmotic pressure in conscious rat; type: in vivo, rat (Sprague-Dawley, male); settings: 0-2 hours, relation to urine volume
Protocol: as §1
Separately, the cumulative urine in each animal was collected for 2 hours after the administration of the compound, and analyze the amounts of sodium and potassium as electrolytes present in the urine (ion-selective electrode method), the amount of chlorine (coulometric titration) and urinary osmotic pressure (cryoscopic method). The results thus observed for typical compounds of the present invention are plotted on the accompanying drawings (FIGS. 1, 2, 3 and 4). […]. In this test, each compound tested was used in the following dose. […]

Vasopressin V1 Receptor = Vasopressin V1 Receptor (Rattus norvegicus, UniProt P30560); experiment: biochemical; type: binding, rat (Sprague-Dawley, female; liver crude membrane); settings: for inhibition at 0.1 µM: 1 h, read-out: Binding Rate of Vasopressin V1 Receptor
Protocol: The livers excised from Sprague-Dawley female rats were cut into small pieces, and were homogenized in 50 mM Tris-HCl, pH 7.4 hereunder referred to as "buffer"). The homogenate was centrifuged at 50000×g, at 4° C. for 20 minutes. The pellet was added the buffer in an amount of 10 times the volume of the pellet, the mixture was recentrifuged by the same method as described above to wash the residue. The buffer was further added to the resulting pellet so that the protein content thereof was adjusted to 10 mg/ml to thus give a crude membrane fraction of rat liver. The crude membrane fraction of rat liver was used in the following test. More specifically, 5000 μg of the crude liver membrane was incubated with [^3 H]-Arg-vasopressin V-1 antagonist ([^3 H) vasopressin V1 antagonist: 2 nM) and various concentration (3×10^-12 to 10^-6) of the test compounds in a 1000 μL of buffer containing 10 mM magnesium chloride, 10 mM potassium chloride and 0.1% bovine serum albumin at 25° C. for 60 minutes. Thereafter the incubation mixture was rapidly filtered by vacuum using a cell harvester. The filters were washed with buffer to remove free ligands and excess buffer, and to thus trap labeled ligand linked with the receptor on the filter paper. The filter paper was sufficiently dried and mixed with a liquid scintillator, and the amount of the [^3 H] vasopressin V1 antagonist bonded to the membrane was determined using a liquid scintillation counter. The inhibition rate at each concentration was calculated according to the following equation:
Inhibition Rate (%)=100-[(B-N)/(B0 -N)]×100
Wherein B represents the amount of the [^3 H] vasopressin V1 antagonist bonded to the membrane in the presence of known amounts of the compound to be tested and the [^3 CH] vasopressin V1 antagonist;
B0 represents the amount of the [^3 H] vasopressin V1 antagonist bonded to the membrane in the absence of the compound to be tested;
N represents the amount of the [^3 H] vasopressin V1 antagonist bonded to the membrane in the presence of an excess of vasopressin (10^-6 M).
The IC50 value (the concentration required to cause 50% inhibition of the specific binding of [^3 H]-V1 antagonist) was determined. […] On the other hand, for the compounds which were investigated only one concentration (10^-7 M), the inhibition rate at that concentration was defined to be the binding rate.

Vasopressin V2 Receptor = Vasopressin V2 Receptor (Rattus norvegicus, UniProt Q00788); experiment: biochemical; type: binding, rat (Sprague-Dawley, female; kidney crude membrane); settings: for inhibition at 0.1 µM: 1 h, read-out: Binding Rate of Vasopressin V2 Receptor; for IC50: [3H] vasopressin V2 antagonist 2 nM, 25° C., 60 minutes, read-out: Affinity for Vasopressin V2 Receptor, IC50
[3] = 150 mg/kg, oral, 7 days observation
[4] = 500 mg/kg, oral, 7 days observation
[5] = 1500 mg/kg, oral, 7 days observation
[6] = 10^-7 M, inhibition rate at this concentration
[7] = [3H] vasopressin V1 antagonist 2 nM, 25° C., 60 minutes, read-out: Affinity for Vasopressin V1 Receptor, IC50

Chain of Vasopressin V2 Receptor (Q00788 whole entry): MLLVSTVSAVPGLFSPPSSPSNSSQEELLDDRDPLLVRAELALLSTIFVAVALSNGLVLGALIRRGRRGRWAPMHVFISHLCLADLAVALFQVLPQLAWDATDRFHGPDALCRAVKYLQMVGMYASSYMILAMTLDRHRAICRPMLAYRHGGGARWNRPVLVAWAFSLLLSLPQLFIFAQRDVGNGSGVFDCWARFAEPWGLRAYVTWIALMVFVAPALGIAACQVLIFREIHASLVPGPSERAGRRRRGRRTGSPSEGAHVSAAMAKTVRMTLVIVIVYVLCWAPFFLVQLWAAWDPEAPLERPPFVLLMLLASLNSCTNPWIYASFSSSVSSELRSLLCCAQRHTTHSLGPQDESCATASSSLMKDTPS
Chain of Vasopressin V1 Receptor (P30560 whole entry): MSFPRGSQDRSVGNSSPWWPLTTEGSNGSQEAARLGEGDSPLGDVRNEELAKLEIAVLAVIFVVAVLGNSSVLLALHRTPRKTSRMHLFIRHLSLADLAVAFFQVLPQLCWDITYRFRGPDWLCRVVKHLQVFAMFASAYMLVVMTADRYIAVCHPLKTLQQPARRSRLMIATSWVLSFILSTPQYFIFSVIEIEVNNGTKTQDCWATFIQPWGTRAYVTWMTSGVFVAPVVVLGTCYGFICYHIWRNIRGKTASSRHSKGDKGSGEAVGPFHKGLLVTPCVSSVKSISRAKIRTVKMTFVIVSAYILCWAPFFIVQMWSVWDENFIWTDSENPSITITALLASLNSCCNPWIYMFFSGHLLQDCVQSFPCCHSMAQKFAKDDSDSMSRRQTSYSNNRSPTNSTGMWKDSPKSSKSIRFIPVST

inhibition at 0.1 µM (Vasopressin V1 Receptor; [6]) [%] | inhibition at 0.1 µM (Vasopressin V2 Receptor; [6]) [%] | SMILES | Amount of Urine Volume (Normal Conscious Rat [1]; 3 mg/kg, i.v.) [ml/kg/0-4 hr.] | Amount of Urine Volume (Normal Conscious Rat [1]; 30 mg/kg, p.o.) [ml/kg/0-4 hr.] | number of death out of 5 or 6 animals (male ICR mice; [3]) | number of death out of 5 or 6 animals (male ICR mice; [4]) | number of death out of 5 or 6 animals (male ICR mice; [5]) | other results
 |  | O=C1C[C@H]2CN(C(=O)c3ccc(NC(=O)c4ccccc4-c4ccccc4)cc3)c3ccccc3C(=O)N2C1 [Example 30, (11aS)-10-[4-[(2-Phenylbenzoyl) Amino]Benzoyl]-1,2,3,10,11, 11a-Hexahydro-5H-Pyrrolo [2,1-c][1,4]Benzodiazepin-2,5-Dione] | 57.1 | 103.0 | 0/6 | 0/6 | 0/6 | 
 |  | Cc1nc2c([nH]1)-c1ccccc1N(C(=O)c1ccc(NC(=O)c3ccccc3-c3ccccc3)cc1)CC2 [Comparative Example 5, reference compound] |  |  | 0/5 | 2 out of 5 and 2/5 | 2 out of 5 and 2/5 | 
 |  | O=C(Nc1ccc(C(=O)N2C[C@H]3C[C@@H](O)CN3c3ccccc32)cc1)c1ccccc1-c1ccccc1 [Example 13, (2R,3aR)-2-Hydroxy-5-[4-[(2-Phenylbenzoyl) Amino]Benzoyl]-1,2,3,3a,4,5-Hexahydro-Pyrrolo[1,2-a]Quinoxaline] | 55.6 | 82.0 |  | 0/5 | 0/5 | 
 |  | NS(=O)(=O)c1cc(C(=O)O)c(NCc2ccco2)cc1Cl [Comp. Ex. 3, Furosemide, reference compound] | 27.3 | 59.9 |  |  |  | urinary osmotic pressure (Normal Conscious Rat [2]; FIG. 4): increased approximately in proportion to the increase in the amount of the urine; amount of electrolytes excreted in the urine (Normal Conscious Rat [2]; FIGS. 1-3): increased approximately in proportion to the increase in the amount of the urine
 |  | Cc1ccccc1C(=O)Nc1ccc(C(=O)N2CCCC(N(C)C)c3ccccc32)cc1 (centres unmarked) [Comp. Ex. 2, reference compound] | 22.9 | 79.1 |  |  |  | IC50 (Vasopressin V1 Receptor): > 1000 nM; inhibition at 0.1 µM (Vasopressin V1 Receptor): 3.4%; inhibition at 0.1 µM (Vasopressin V2 Receptor): 91.2%; number of death out of 5 or 6 animals (male ICR mice; mouse, in vivo): 4 out of 5 and 0/5 and 4/5
98.6 | 95.1 | O=C(Nc1ccc(C(=O)N2CC[C@H]3C[C@H](O)CN3c3ccccc32)cc1)c1ccccc1-c1ccccc1 [Example 54, (2S, 3aS)-2-Hydroxy-6-[4-[(2-Phenylbenzoyl) Amino]Benzoyl]-2,3,3a,4,5,6-Hexahydro-1H-Pyrrolo[1,2-a][1,5]Benzodiazepine] | 78.3 | 68.0 |  |  |  | 
92.4 | 97.8 | O=C(Nc1ccc(C(=O)N2CC[C@@H]3C[C@@H](O)CN3c3ccccc32)cc1)c1ccccc1-c1ccccc1 [Example 50] | 60.0 | 36.0 |  |  |  | 
2.8 | 100 | O=C(Nc1ccc(C(=O)N2C[C@@H]3CCCN3C(=S)c3ccccc32)cc1)c1ccccc1-c1ccccc1 [Example 37, (11aS)-10-[4-[(2-Phenylbenzoyl) Amino]Benzoyl]-1,2,3,10,11, 11a-Hexahydro-5H-Pyrrolo[2,1-c][1,4]Benzodiazepin-5-Thione] | 40.7 | 21.1 |  |  |  | 
 |  | Cl.O=C(Nc1ccc(C(=O)N2C[C@H]3C[C@H](O)CN3Cc3ccccc32)cc1)c1ccccc1-c1ccccc1 [Example 47, (2S, 11aR)-2-Hydroxy-10-[4-[(2-Phenylbenzoyl) Amino]Benzoyl]-1,2,3,10,11,11a-Hexahydro-5H-Pyrrolo[2,1-c][1,4]Benzodiazepine Hydrochloride] | 79.5 | 109.6 |  |  |  | inhibition at 0.1 µM (Vasopressin V1 Receptor): 59.8%; IC50 (Vasopressin V1 Receptor; [7]): 62 nM; inhibition at 0.1 µM (Vasopressin V2 Receptor): 91.9%; IC50 (Vasopressin V2 Receptor): 0.77 nM
52.4 | 100 | O=C(Nc1ccc(C(=O)N2C[C@H]3C[C@H](O)CN3c3ccccc32)cc1)c1ccccc1-c1ccccc1 [Example 17, (2S, 3aR)-2-Hydroxy-5-[4-[(2-Phenylbenzoyl) Amino]Benzoyl]-1,2,3,3a,4,5-Hexahydro-Pyrrolo[1,2-a]Quinoxaline] | 58.6 | 26.3 |  |  |  | 

SMILES | inhibition at 0.1 µM (Vasopressin V1 Receptor; [6]) [%] | inhibition at 0.1 µM (Vasopressin V2 Receptor; [6]) [%] | Amount of Urine Volume (Normal Conscious Rat [1]; 3 mg/kg, i.v.) [ml/kg/0-4 hr.] | Amount of Urine Volume (Normal Conscious Rat [1]; 30 mg/kg, p.o.) [ml/kg/0-4 hr.] | number of death out of 5 or 6 animals (male ICR mice; [3]) | number of death out of 5 or 6 animals (male ICR mice; [4]) | number of death out of 5 or 6 animals (male ICR mice; [5]) | other results
O=C(Nc1ccc(C(=O)N2C[C@@H]3CCCN3C(=O)c3ccccc32)cc1)c1ccccc1-c1ccccc1 [Example 25, (11aS)-10-[4-[(2-Phenylbenzoyl) Amino]Benzoyl]-1,2,3,10,11, 11a-Hexahydro-5H-Pyrrolo[2,1-c][1,4]Benzodiazepin-5-One] | 4.1 | 100 | 58.5 | 102.7 | 0/6 | 0/6 | 0/6 | IC50 (Vasopressin V1 Receptor; [7]): > 1000 nM; IC50 (Vasopressin V2 Receptor): 1.6 nM
Cc1ccc(-c2ccccc2C(=O)Nc2ccc(C(=O)N3C[C@H]4C[C@H](O)CN4c4ccccc43)cc2)cc1 [Example 18, (2S, 3aR)-2-Hydroxy-5-[4-[[2-(4-Tolyl) Benzoyl]Amino]Benzoyl]-1,2,3,3a,4,5-Hexahydro-Pyrrolo[1,2-a]Quinoxaline] | 58.3 | 100 | 79.2 | 96.3 | 0/6 | 0/6 | 0/6 | IC50 (Vasopressin V1 Receptor; [7]): 66 nM; IC50 (Vasopressin V2 Receptor): 0.18 nM
